# Assay results reported in US20260248820A1, “USES OF HYDROGENATED CANNABIDIOL (H4CBD) AND ADVANCED METABOLIC SYNDROME” (The Regents of the University of California, priority 2022, published 2026).
# “Also recorded” adds a separate entry of the source.
# Experiments:
# [1] = test system: Otsuka Long-Evans Tokushima Fatty (OLETF) rat; assay: Oral Glucose Tolerance Test (OGTT); assay type: in vivo
# Experimental: Male lean Long Evan's Tokushima Otsuka (LETO) rats and obese Otsuka Long Evans Tokushima Fatty (OLETF) rats (Japan SLC Inc., Hamamatsu, Japan), both 14 weeks of age were assigned to the following groups (n=8/group): (1) vehicle-dosed LETO (LETO), (2) vehicle-dosed OLETF (OLETF), and (3) H4CBD-treated (200 mg/kg/day×4 weeks) OLETF (H4CBD). Rats were maintained in a specific pathogen-free, climate-controlled facility on a 12-hour light: dark cycle (07:00-19:00 and 19:00-07:00, respectively). All animals had free access to water and were fed rat chow (Teklad Global; fat 9.0%; carbohydrate 44.9%; protein 19.0%) ad libitum. Treatment intervention was initiated at 41 weeks of age. Phenotypic data (i.e. body mass, food intake) was collected daily for all animals.
# Purified H4CBD (>99%) was suspended in food grade sesame oil and administered by oral gavage at a dose of 200 mg/kg.
# Oral Glucose Tolerance Test (OGTT)—At approximately 45 weeks of age and following an overnight fast, oGTTs were performed as previously described. The positive incremental areas under the curve for glucose (AUCglucose) and insulin (AUCinsulin) were calculated by the trapezoidal method. Insulin resistance index (IRI) was calculated by AUCglucosex AUCinsulin/100, as previously described.
# [2] = test system: proteins involved in insulin signaling (soleus); assay: Western blot of soleus insulin signaling proteins; assay type: in vivo, rat
# Excerpt: Western Blot—Soleus was used to measure proteins involved in insulin signaling. Densitometry values were quantified using ImageJ software (NIH) and normalized by correcting for densitometry values of representative protein bands below 37 kDa stained with Ponceau S. Results are reported as expression (%) compared to LETO.
# [3] = test system: Otsuka Long-Evans Tokushima Fatty (OLETF) rat; assay: Urinalysis (urine volume, total protein, creatinine, 3-methylhistidine); assay type: in vivo
# Experimental: Body Mass (BM), Water, and Food Intake—BM was measured daily to calculate the appropriate drug and vehicle dose. Water, urine and food were measured once every 24 hours throughout the study.
# Urinalysis—Urine was collected and thawed on ice to measure 3-methylhistidine (3MH; Abbexa; 257295) and creatinine (Invitrogen; EIACUN). Excretion was calculated for both by multiplying the 24-hr urine volume by the measured concentration (U×V=V*[x]), where x=creatinine or 3MH.
# lipase activity = assay: Lipase activity assay (adipose, liver, plasma); assay type: in vivo, rat
# Experimental: Lipase Activity Assay—White adipose tissue (WAT) and liver was assayed for lipase activity.
# [4] = test system: Otsuka Long-Evans Tokushima Fatty (OLETF) rat; assay: Liver triglyceride content; assay type: in vivo; conditions: p<0.05
# [5] = test system: Otsuka Long-Evans Tokushima Fatty (OLETF) rat; assay: Systolic blood pressure by DSI radiotelemetry; assay type: in vivo; conditions: for Average increase of systolic blood pressure versus non-treated OLETF: after the 7th day of the dose regimen
# Experimental: Telemeter Implantation—At 16 weeks, OLETF rats (n=5) were implanted with DSI telemeters (HD-S10) in the abdominal cavity to measure systolic blood pressure. […] Activity was measured every hour for 15 minutes for the duration of the study. Data were analyzed using A.R.T. software (DSI, St. Paul, MN).
# AT1 mRNA = assay: Real-time qPCR on cardiac tissue, AT1; assay type: in vivo, rat
# Excerpt: (§1) Real-Time qPCR—Gene expression was quantified by qPCR on cardiac tissue. Primers used were acquired from Integrated DNA Technologies and listed here 5′-3′: angiotensin MAS1 receptor (Mas1) Fw: […] (SEQ ID NO:1), Rv: […] (SEQ ID NO:2).
# Mas1 mRNA = assay: Real-time qPCR on cardiac tissue, Mas1; assay type: in vivo, rat; conditions: 74% lower in OLETF control than LETO
# Excerpt: as §1
# [6] = test system: Otsuka Long-Evans Tokushima Fatty (OLETF) rat; assay: Observation of treated animals during dosing window; assay type: in vivo; conditions: all treated animals, regardless of dose frequency relaxation
# [7] = test system: endocannabinoid receptors; conditions: cited from earlier work
smiles,measurement,setting,value
"CCCCCc1cc(O)c(C2CC(C)CCC2C(C)C)c(O)c1 (centres unmarked) [H4CBD, 2-(2-isopropyl-5-methylcyclohexyl)-5-pentylbenzene-1,3-diol]",Glucose response curve to OGTT,"[1]; % baseline, p<0.01 OLETF vs. H4CBD",lowest
same,Reduction of insulin resistance index (IRI),"[1]; IRI = AUCglucose x AUCinsulin/100, p<0.05 OLETF vs. H4CBD",23%
same,Time of blood glucose peak after glucose bolus,"[1]; OGTT at about 45 weeks, overnight fast, treated and non-treated OLETF",60 min
same,Reduction of overall AUCglucose from OLETF,"[1]; OGTT, p<0.001",29%
same,Plasma insulin response to OGTT,[1]; response abolished in OLETF,not rescued
same,Translocated (membrane) GLUT4,[2]; membrane fraction of skeletal muscle,no changes
same,AMPK expression,[2]; soleus,No changes were detected
same,Ratio of membrane to cytosolic GLUT4,[2]; soleus,unchanged among the groups
same,Reduction of PI3K expression compared to OLETF,[2]; soleus,47%
same,pAMPK expression,[2]; soleus,No changes were detected
same,pAMPK/AMPK expression,[2]; soleus,No changes were detected
same,pIR/IR,[2]; soleus,not changed
same,Phosphorylation of the insulin receptor (pIR),[2]; soleus protein expression,No changes were detected
same,Reduction of Akt expression compared to OLETF,"[2]; soleus, cytosolic, p<0.05",32%
same,Reduction of pAkt expression compared to OLETF,"[2]; soleus, cytosolic, p<0.05",58%
same,Reduction of pAkt:Akt ratio compared to OLETF,"[2]; soleus, p<0.01",35%
same,Increase of native insulin receptor (IR) expression over OLETF,"[2]; soleus, p<0.05",54%
same,Cytosolic GLUT4 higher than OLETF,"[2]; soleus, tended, p=0.06",58%
same,"Urine excretion compared to vehicle control, first week",[3]; 24-hour urine,reduced
same,"Urine excretion volume compared to OLETF control, remainder of study","[3]; 24-hour urine, persisted through the remainder of the study",increased above OLETF control by Day 11
same,Increase of 3MH excretion pre- vs. post-treatment,[3]; Day 0 vs Day 28,9%
same,3MH excretion less than OLETF control,[3]; after 4 weeks,17%
same,Reduction of creatinine excretion compared to OLETF control,[3]; after 4 weeks,42%
same,Increase of creatinine excretion within H4CBD-treated group,"[3]; after 4 weeks of treatment vs Day 0, non-significant",10%
same,3MH/Cr higher than OLETF control,"[3]; post-treatment (Day 28), p=0.07",77%
same,Reduction of proteinuria compared to OLETF control,[3]; total urinary protein excretion after 4 weeks,25%
same,Increase of 3MH/Cr after 4 weeks,"[3]; within H4CBD treated OLETF, muscle wasting index",4%
same,"Liver lipase activity (cytosolic, membrane)","lipase activity; LETO, OLETF, H4CBD",not different among groups
same,Fasted plasma lipase activity,lipase activity; data not shown,not significantly different among groups
same,Increase of adipose lipase activity compared to OLETF control,"lipase activity; white adipose tissue, tended, p=0.094",22%
same,Reduction of liver triglyceride content,[4],28%
same,"Systolic blood pressure, treated vs non-treated OLETF",[5]; 4 weeks telemetry,No significant difference; also recorded: did not reduce SBP
same,Average increase of systolic blood pressure versus non-treated OLETF,[5],4%
same,Average increase of systolic blood pressure versus non-treated OLETF,"[5]; H4CBD n=3, OLETF n=2",6.5 mmHg
same,AT1 mRNA expression higher than control OLETF,AT1 mRNA,49%
same,Mas1 mRNA expression,Mas1 mRNA,not rescued
same,Stool observation,[6],soft stool at multiple points of the dosing window
same,Affinity for the endocannabinoid receptors responsible for cannabis intoxication,[7],little affinity
